Reference: patent US7572765B2, “Conformationally constrained parathyroid hormone (PTH) analogs” (The General Hospital Corporation, priority 2001, dated 2009)
“Also recorded” adds a separate entry of the source. Square brackets hold non-standard residues; d marks the D form. Peptide text beside a SMILES is read from it. hArg = N=C(N)NCCCC[C@H](N)C(=O)O; Aib = CC(C)(N)C(=O)O

Key:
[1] = biological target: T1, wild-type human P1R (hP1R-WT) (Homo sapiens, UniProt Q03431); assay: Stimulation of inositol phosphate production (PLC) in COS-7 cells expressing hP1R-WT; format: cell-based; details: for PLC EMAX(obs.) / EC50: hP1R-WT; for EC50: dash = no PLC response observed
T1 construct: expressed in transfected cells; host or cells: COS-7 (transient, FuGENE 6)
T1 sequence (Q03431 27-593): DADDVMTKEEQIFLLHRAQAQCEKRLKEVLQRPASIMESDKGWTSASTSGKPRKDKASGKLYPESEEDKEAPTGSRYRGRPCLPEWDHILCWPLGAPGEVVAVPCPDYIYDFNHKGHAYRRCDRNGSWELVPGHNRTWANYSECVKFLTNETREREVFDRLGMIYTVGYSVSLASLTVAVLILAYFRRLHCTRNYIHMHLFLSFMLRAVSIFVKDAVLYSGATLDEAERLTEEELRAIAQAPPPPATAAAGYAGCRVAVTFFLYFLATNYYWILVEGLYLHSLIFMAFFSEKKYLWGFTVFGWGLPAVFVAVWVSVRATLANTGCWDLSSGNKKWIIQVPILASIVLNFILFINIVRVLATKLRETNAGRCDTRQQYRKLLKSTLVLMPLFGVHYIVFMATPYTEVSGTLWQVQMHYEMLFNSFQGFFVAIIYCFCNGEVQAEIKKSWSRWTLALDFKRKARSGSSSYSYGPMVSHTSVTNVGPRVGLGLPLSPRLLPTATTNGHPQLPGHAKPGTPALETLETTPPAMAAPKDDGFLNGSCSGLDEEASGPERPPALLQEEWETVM
Procedure: Cell Culture. The cell line HKRK-B28 (Takasu, H., et al., J. Bone Miner. Res. 14:11-20 (1999)) was derived from the porcine kidney cell line, LLC-PK1 by stable transfection with plasmid DNA encoding the human P1R and expresses ˜280,000 receptors per cell. These cells, as well as COS-7 cells and SaOS-2-B10 cells, were cultured at […] in T-75 flasks ([…]) in Dulbecco's modified Eagle's medium (DMEM) supplemented with fetal bovine serum (10%), penicillin G (20 units/ml), streptomycin sulfate (20 μg/ml) and amphotericin B (0.05 μg/ml) in a humidified atmosphere containing 5% CO2. Stock solutions of EGTA/trypsin and antibiotics were from GIBCO; fetal bovine serum was from Hyclone Laboratories (Logan, Utah). COS-7 cells sub-cultured in 24-well plates were transfected with plasmid DNA (200 ng per well) encoding the wild-type human P1R or truncated human P1R deleted for residues (24-181) (Shimizu, M., et al., J. Biol. Chem. 275:21836-21843 (2000)) that was purified by cesium chloride/ethidium bromide density gradient centrifugation, and FuGENE 6 transfection reagent (Roche Indianapolis Ind.) according to the manufacturer's recommended procedure. All cells, in 24-well plates, were treated with fresh media and shifted to 33° C. for 12 to 24 h prior to assay.
Stimulation of Inositol Phosphate Production. COS-7 cells transfected as above with P1R-WT were treated with serum-free, inositol-free DMEM containing 0.1% bovine serum albumin and [^3H]myo-inositol (NEN, Boston, Mass.) (2 μCi/mL) for 16 h prior to assay. At the time of the assay, the cells were rinsed with binding buffer containing LiCl (30 mM) and treated with the same buffer with or without a PTH analog. The cells were then incubated at 37° C. for 40 min, after which the buffer was removed and replaced by 0.5 mL of ice cold 5% trichloroacetic acid solution. After 3 h on ice, the lysate was collected and extracted twice with ethyl ether. The lysate was then applied to an ion exchange column (0.5 mL resin bed) and the total inositol phosphates were eluted as described previously (Berridge, M. J., et al., Biochem. J. 212:473-482 (1983)), and counted in liquid scintillation cocktail.

[2] = biological target: T2, P1R-delNt, truncated human P1R deleted for residues (24-181) (Homo sapiens, UniProt Q03431); assay: Competition binding in COS-7 cells expressing hP1R-delNt; details: for Binding IC50 / IC50: COS-7 cells, hP1R-delNT, tracer 125I-[Aib^1,3,M]PTH(1-21), N.B. = no inhibition of tracer binding
T2 construct: expressed in transfected cells; host or cells: COS-7 (transient, FuGENE 6)
T2 sequence (Q03431 with tags, fused parts or gaps limits assumed): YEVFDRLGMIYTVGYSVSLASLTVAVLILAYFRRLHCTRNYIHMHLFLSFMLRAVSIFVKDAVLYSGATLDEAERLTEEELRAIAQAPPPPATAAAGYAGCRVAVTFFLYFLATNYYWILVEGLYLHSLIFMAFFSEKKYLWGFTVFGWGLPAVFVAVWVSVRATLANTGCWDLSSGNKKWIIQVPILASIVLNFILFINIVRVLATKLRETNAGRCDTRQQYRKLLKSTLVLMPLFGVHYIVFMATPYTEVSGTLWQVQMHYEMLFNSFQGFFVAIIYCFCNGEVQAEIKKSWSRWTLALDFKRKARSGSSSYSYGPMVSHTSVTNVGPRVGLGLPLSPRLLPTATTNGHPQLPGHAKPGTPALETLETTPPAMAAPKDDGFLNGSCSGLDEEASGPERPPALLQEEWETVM

[3] = system: embryonic mouse metatarsals; assay: Inhibition of chondrocyte differentiation in embryonic mouse metatarsals (explant assay); format: cell-based; details: for effect on mineralization / chondrocyte differentiation: E15.5 mouse metatarsals, 48 h treatment, PTH(1-34) 0.1 μM, [Aib^1,3,M]PTH(1-14) 1 μM, native PTH(1-14) 2 μM; for expression of the collagen X gene (mRNA in situ hybridization): explanted metatarsals, data not shown
Procedure: Inhibition of Chondrocyte Differentiation in Embryonic Mouse Metatarsals. Metatarsals from embryonic day (E) 15.5 mouse embryos were excised and cultured in a 37° C. humidified incubator (5% CO2) in serum -free αXMEM media in 24 well plates. Sixteen hours later, a PTH analog or vehicle was added, and the samples were incubated for an additional 48 h in 37° C. with peptide or vehicle added again at the 24 h time point. At the end of the 64 h incubation period, the samples were fixed with 10% formalin/phosphate-buffered saline, then directly visualized on a dissecting microscope using white light. Sections were processed for in-situ hybridization analysis using ^35S-labeled riboprobes specific for collagen type X mRNA, a developmental marker gene expressed only in hypertrophic chrondrocytes of the growth plate.
Whether or not [Aib^1,3,M]PTH(1-14) activity could be detected in a more intact bone system was studied in an explant assay. An explant assay utilized cartilaginous metatarsal rudiments isolated from E15.5mouse embryos and subsequently cultured in multi-well plates containing serum-free media. A PTH peptide analog or vehicle control, was added to the culture 16 h after explantion, then again at 24 h. The incubation was terminated 24 h later for a total of 48 h of treatment over a 64 h period. In the absence of PTH, chondrocyte differentation occurred, such that by the end of the experiment, dense mineralization was apparent at the bone's mid-section (FIG. 5A). […] These inhibitory effects were consistent with the known capacity of PTHRP to retard chondrocyte differentiation in the growth plate cartilage of developing long bones (Pellegrini, M., et al., Biochemistry 37:12737-12743 (1998)).

| increase in IP formation ([1]; P1R-WT) [fold] | PLC EMAX(obs.) [1] [foldxbasal] | EC50 [1] [nM] | Binding IC50 [2] | IC50 [2] [nM] | Molecule | effect on mineralization / chondrocyte differentiation [3] | expression of the collagen X gene (mRNA in situ hybridization) [3] | other results |
| --- | --- | --- | --- | --- | --- | --- | --- | --- |
| 4 | 4.2 ± 0.6 | 17 ± 2 | N.B. |  | CCCC[C@H](NC(=O)[C@H](CCCNC(=N)N)NC(=O)[C@H](CCC(=O)O)NC(=O)[C@@H](NC(=O)[C@H](CO)NC(=O)[C@H](C)NC(=O)[C@H](CC(C)C)NC(=O)[C@H](Cc1c[nH]cn1)NC(=O)[C@H](CCCCN)NC(=O)CNC(=O)[C@H](CC(C)C)NC(=O)[C@H](CC(N)=O)NC(=O)[C@H](Cc1c[nH]cn1)NC(=O)[C@H](CCCC)NC(=O)[C@H](CC(C)C)NC(=O)[C@H](CCC(N)=O)NC(=O)[C@@H](NC(=O)[C@H](CCC(=O)O)NC(=O)[C@H](CO)NC(=O)[C@@H](NC(=O)[C@H](C)N)C(C)C)[C@@H](C)CC)C(C)C)C(=O)N[C@@H](CCC(N)=O)C(=O)N[C@@H](Cc1c[nH]c2ccccc12)C(=O)N[C@@H](CC(C)C)C(=O)N[C@@H](CCCNC(=N)N)C(=O)N[C@@H](CCCCN)C(=O)N[C@@H](CCCCN)C(=O)N[C@@H](CC(C)C)C(=O)N[C@@H](CCC(N)=O)C(=O)N[C@@H](CC(=O)O)C(=O)N[C@H](C(=O)N[C@@H](Cc1c[nH]cn1)C(=O)N[C@@H](CC(N)=O)C(=O)N[C@@H](Cc1ccc(O)cc1)C(N)=O)C(C)C [PTH(1-34), [Nle^8,21, Tyr^34]PTH(1-34)amide, reference compound] | no mineralization was observed; also recorded: inhibited mineralization | inhibited expression of the collagen X gene |  |
|  |  |  | N.B. |  | CC[C@H](C)[C@H](NC(=O)[C@H](CCC(=O)O)NC(=O)C(C)(C)NC(=O)[C@@H](NC(=O)C(C)(C)N)C(C)C)C(=O)N[C@@H](CCC(N)=O)C(=O)N[C@@H](CC(C)C)C(=O)N[C@@H](CCSC)C(=O)N[C@@H](Cc1c[nH]cn1)C(=O)N[C@@H](CCC(N)=O)C(N)=O [[Aib^1,3,M]PTH(1-10), [Aib^1,3,Gln^10]PTH(1-10)] (H-[Aib]V[Aib]EIQLMHQ-NH2) |  |  |  |
|  |  |  |  | 13000 | CC[C@H](C)[C@H](NC(=O)[C@H](CCC(=O)O)NC(=O)C(C)(C)NC(=O)[C@@H](NC(=O)C(C)(C)N)C(C)C)C(=O)N[C@@H](CCC(N)=O)C(=O)N[C@@H](CC(C)C)C(=O)N[C@@H](CCSC)C(=O)N[C@@H](Cc1c[nH]cn1)C(=O)N[C@@H](CCC(N)=O)C(=O)N[C@@H](CCCCNC(=N)N)C(N)=O [[Aib^1,3,M]PTH(1-11), AibValAibGluIleGlnLeuMetHisGlnHar] (H-[Aib]V[Aib]EIQLMHQ[hArg]-NH2) |  |  |  |
| 4 | 3.9 ± 0.5 |  |  |  | CC[C@H](C)[C@H](NC(=O)[C@H](CCC(=O)O)NC(=O)[C@H](C)NC(=O)[C@@H](NC(=O)[C@H](C)N)C(C)C)C(=O)N[C@@H](CCC(N)=O)C(=O)N[C@@H](CC(C)C)C(=O)N[C@@H](CCSC)C(=O)N[C@@H](Cc1c[nH]cn1)C(=O)N[C@@H](CCC(N)=O)C(=O)N[C@@H](CCCCNC(=N)N)C(=O)N[C@@H](C)C(=O)N[C@@H](CCCCN)C(=O)N[C@@H](Cc1c[nH]c2ccccc12)C(N)=O [[M]PTH(1-14), [Ala^3,12,Gln^10,Har^11,Trp^14]PTH(1-14)amide, reference compound] (H-AVAEIQLMHQ[hArg]AKW-NH2) |  |  |  |
| 4 | 4.3 ± 0.6 | 71 ± 9 | effectively inhibited the binding | ~1500 | CC[C@H](C)[C@H](NC(=O)[C@H](CCC(=O)O)NC(=O)C(C)(C)NC(=O)[C@@H](NC(=O)C(C)(C)N)C(C)C)C(=O)N[C@@H](CCC(N)=O)C(=O)N[C@@H](CC(C)C)C(=O)N[C@@H](CCSC)C(=O)N[C@@H](Cc1c[nH]cn1)C(=O)N[C@@H](CCC(N)=O)C(=O)N[C@@H](CCCCNC(=N)N)C(=O)N[C@@H](C)C(=O)N[C@@H](CCCCN)C(=O)N[C@@H](Cc1c[nH]c2ccccc12)C(N)=O [[Aib^1,3,M]PTH(1-14), AibValAibGluIleGlnLeuMetHisGlnHarAlaLysTrp] (H-[Aib]V[Aib]EIQLMHQ[hArg]AKW-NH2) | no mineralization was observed; also recorded: inhibited mineralization | inhibited expression of the collagen X gene | PLC potency, fold more potent than [M]PTH(1-14) ([1]; P1R-WT): 66 fold; binding affinity, fold stronger than [M]PTH(1-14) ([2]; P1R-delNt): ~10 fold; difference in affinity between [Aib^1,3,M]PTH(1-14) and [Aib^1,3,M]PTH(1-21) ([2]; P1R-delNt): 50 fold |
|  |  |  | N.B. |  | H-AVSEIQLMHNLGKH-NH2 [PTH(1-14), reference compound] | no effect could be detected; also recorded: mineralization can be detected |  | Binding IC50 ([2]; listed as native PTH(1-14)): failed to inhibit tracer binding |
